From patent US10611740B2, “Aryl dihydro-2H-benzo[b][1,4]oxazine sulfonamide and related compounds for use as agonists of RORγ and the treatment of disease” (Lycera Corporation, priority 2015, dated 2020)

Key:
RORγ-LBD = biological target: T1, RORγ-LBD (Homo sapiens, UniProt P51449); test: RORγ-Ligand Binding Domain (LBD) TR-FRET Assay; type: biochemical;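 on TR-FRET Assay Max Response: 665/615 nm ratio relative to signal without ursolic acid or compound set at 100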
T1 construct: made in house; host or cells: SF9 cells (baculovirus)
T1 sequence (P51449 269-508 limits assumed): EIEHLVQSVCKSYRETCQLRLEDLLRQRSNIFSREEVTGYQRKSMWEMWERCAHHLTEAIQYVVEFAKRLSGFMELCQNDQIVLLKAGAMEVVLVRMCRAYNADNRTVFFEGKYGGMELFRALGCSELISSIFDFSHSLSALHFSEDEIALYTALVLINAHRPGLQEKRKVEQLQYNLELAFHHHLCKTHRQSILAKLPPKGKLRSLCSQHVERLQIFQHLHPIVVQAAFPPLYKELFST
Method in brief: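 This TR-FRET coactivator assay pairs baculovirus-expressed His-RORγ-LBD (~3 nM final) with biotin-SRC1 LXXLL peptide at 200 nM final in pH 7.0 Tris/KCl/EDTA/DTT/BSA buffer.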

Gal4-RORγ-LBD = biological target: T2, Gal4-RORγ-LBD (Homo sapiens, UniProt P51449); test: Gal4-RORγ Luciferase Reporter Assay in HEK-293T Cells; type: cell-based; conditions: HEK-293 cells
T2 construct: expressed in transfected cells; host or cells: HEK-293 cells (pcDNA3.1neo plasmid)
T2 sequence (P51449 269-508 limits assumed): T1 sequence (P51449 269-508 limits assumed)
Method in brief: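 Luminescence read-out (One-Glo, 10 min RT) after overnight compound exposure at 37 °C in HEK-293 cells carrying Gal4-RORγ-LBD plus a Gal4-luciferase reporter, in the presence of 2 μM ursolic acid. Max Response is the upper plateau from a 4-parameter logistic fit, normalized to untreated signal = 100.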

[1] = luciferase reporter, with 2 μM ursolic acid

SMILES | EC50 (RORγ-LBD) | EC50 (Gal4-RORγ-LBD; 2 μM ursolic acid) | EC50 (Gal4-RORγ-LBD; [1]) | TR-FRET Assay Max Response (RORγ-LBD) | Gal4-RORγ Assay Max Response (Gal4-RORγ-LBD; 2 μM ursolic acid) | Gal4-RORγ Assay Max Response (Gal4-RORγ-LBD; [1])
CC(C)c1cccc(S(=O)(=O)N2C[C@H](CCNC(=O)C(C)(C)O)Oc3ccc(-c4cccc(N(C)C)n4)cc32)c1 [Compound 30G, (S)-N-(2-(6-(6-(dimethylamino)-pyridin-2-yl)-4-((3-isopropyl-phenyl)sulfonyl)-3.,4-dihydro-2H-benzo[b][1,4]oxazin-2-yl)ethyl)-2-hydroxy-2-methylpropanamide] | < 500 nM |  | < 500 nM | **** (The symbol “****” indicates a value greater than 200) |  | * (The symbol “*” indicates a value in the range of 25 to 90)
CN(C)c1cccc(-c2ccc3c(c2)N(S(=O)(=O)c2cccc(C(F)(F)F)c2)C[C@H](CNC(=O)C(C)(C)O)O3)n1 [Compound 30H, (S)-N-((6-(6-(dimethylamino)-pyridin-2-yl)-4-((3-(trifluoromethyl)phenyl)sulfonyl)-3,4-dihydro-2H-benzo[b][1,4]oxazin-2-yl)methyl)-2-hydroxy-2-methylpropanamide] | < 500 nM |  | < 500 nM | **** (The symbol “****” indicates a value greater than 200) |  | * (The symbol “*” indicates a value in the range of 25 to 90)
CC(C)c1cccc(S(=O)(=O)N2C[C@H](CNC(=O)C(C)(C)O)Oc3ccc(-c4cccc(N(C)C)n4)cc32)c1 [Compound 30J, (S)-N-((6-(6-(dimethylamino)-pyridin-2-yl)-4-((3-isopropylphenyl)sulfonyl)-3,4-dihydro-2H-benzo[b][1,4]oxazin-2-yl)methyl)-2-hydroxy-2-methylpropanamide] | < 500 nM |  | < 500 nM | **** (The symbol “****” indicates a value greater than 200) |  | * (The symbol “*” indicates a value in the range of 25 to 90)
CC(C)c1cccc(S(=O)(=O)N2C[C@H](CNC(=O)C(C)(C)O)Oc3ccc(-c4cc(F)ccc4F)cc32)c1 [Compound 30K, (S)-N-((6-(2,5-difluorophenyl)-4-((3-isopropylphenyl)sulfonyl)-3,4-dihydro-2H-benzo[b][1,4]-oxazin-2-yl)methyl)-2-hydroxy-2-methylpropanamide] | < 500 nM |  | < 500 nM | **** (The symbol “****” indicates a value greater than 200) |  | * (The symbol “*” indicates a value in the range of 25 to 90)
COc1cc(S(=O)(=O)N2C[C@H](CCNC(=O)C(C)(C)O)Oc3ccc(-c4cc(F)ccc4F)cc32)ccc1F [Compound 30M, (S)-N-(2-(6-(2,5-difluorophenyl)-4-((4-fluoro-3-methoxyphenyl)-sulfonyl)-3,4-dihydro-2H-benzo[b][1,4]oxazin-2-yl)ethyl)-2-hydroxy-2-methylpropanamide] | < 500 nM |  | < 500 nM | *** (The symbol “***” indicates a value in the range of greater than 150 to 200) |  | * (The symbol “*” indicates a value in the range of 25 to 90)
COc1cccc(-c2ccc3c(c2)N(S(=O)(=O)c2ccc(F)c(OC)c2)C[C@H](CCNC(=O)C(C)(C)O)O3)c1 [Compound 30N, (S)-N-(2-(4-((4-fluoro-3-methoxyphenyl)sulfonyl)-6-(3-methoxyphenyl)-3,4-dihydro-2H-benzo[b][1,4]oxazin-2-yl)ethyl)-2-hydroxy-2-methylpropanamide] | < 500 nM |  | < 500 nM | *** (The symbol “***” indicates a value in the range of greater than 150 to 200) |  | * (The symbol “*” indicates a value in the range of 25 to 90)
COc1cc(S(=O)(=O)N2C[C@H](CCNC(=O)C(C)(C)O)Oc3ccc(-c4cccc(C(F)(F)F)n4)cc32)ccc1F [Compound 30O, (S)-N-(2-(4-((4-fluoro-3-methoxyphenyl)sulfonyl)-6-(6-(trifluoromethyl)pyridin-2-yl)-3,4-dihydro-2H-benzo[b][1,4]-oxazin-2-yl)ethyl)-2-hydroxy-2-methylpropanamide] | < 500 nM |  | < 500 nM | **** (The symbol “****” indicates a value greater than 200) |  | ** (The symbol “**” indicates a value in the range of greater than 90 to 150)
COc1cc(S(=O)(=O)N2C[C@H](CNC(=O)C(C)(C)O)Oc3ccc(-c4cc(F)ccc4F)cc32)ccc1F [Compound 30Q, (S)-N-((6-(2,5-difluorophenyl)-4-((4-fluoro-3-methoxyphenyl)-sulfonyl)-3,4-dihydro-2H-benzo[b][1,4]oxazin-2-yl)methyl)-2-hydroxy-2-methylpropanamide] | < 500 nM |  | < 500 nM | **** (The symbol “****” indicates a value greater than 200) |  | * (The symbol “*” indicates a value in the range of 25 to 90)

Continued, in another order:

EC50 (RORγ-LBD) | EC50 (Gal4-RORγ-LBD; 2 μM ursolic acid) | EC50 (Gal4-RORγ-LBD; [1]) | SMILES | TR-FRET Assay Max Response (RORγ-LBD) | Gal4-RORγ Assay Max Response (Gal4-RORγ-LBD; 2 μM ursolic acid) | Gal4-RORγ Assay Max Response (Gal4-RORγ-LBD; [1])
< 500 nM | < 500 nM |  | C=CCC(=O)NC[C@H]1CN(S(=O)(=O)c2cccc(C(F)(F)F)c2)c2cc(-c3cc(F)cc(OC(F)F)c3)ccc2O1 [Compound 30DI, (S)-N-((6-(3-(difluoromethoxy)-5-fluorophenyl)-4-((3-(trifluoro-methyl)phenyl)sulfonyl)-3,4-dihydro-2H-benzo[b][1,4]-oxazin-2-yl)methyl)but-3-enamide] | *** (The symbol “***” indicates a value in the range of greater than 150 to 200) | * (The symbol “*” indicates a value in the range of 25 to 90) | 
< 500 nM | 500 to 5000 nM |  | O=C(NC[C@H]1CN(S(=O)(=O)c2cccc(C(F)(F)F)c2)c2cc(-c3cc(F)cc(OC(F)F)c3)ccc2O1)C1(F)CC1 [Compound 30DJ, (S)-N-((6-(3-(difluoromethoxy)-5-fluorophenyl)-4-((3-(trifluoro-methyl)phenyl)sulfonyl)-3,4-dihydro-2H-benzo[b][1,4]-oxazin-2-yl)methyl)-1-fluorocyclopropane-1-carboxamide] | *** (The symbol “***” indicates a value in the range of greater than 150 to 200) | * (The symbol “*” indicates a value in the range of 25 to 90) | 
< 500 nM |  | < 500 nM | COc1cccc(-c2ccc3c(c2)N(S(=O)(=O)c2cccc(C(F)(F)F)c2)C[C@H](CCNC(=O)C(C)(C)O)O3)c1 [Compound 30E, (S)-2-hydroxy-N-(2-(6-(3-methoxyphenyl)-4-((3-(trifluoromethyl)phenyl)sulfonyl)-3,4-dihydro-2H-benzo[6][1,4]oxazin-2-yl)ethyl)-2-methylpropanamide] | **** (The symbol “****” indicates a value greater than 200) |  | ** (The symbol “**” indicates a value in the range of greater than 90 to 150)
< 500 nM |  | < 500 nM | COc1cc(F)cc(-c2ccc3c(c2)N(S(=O)(=O)c2cccc(C(F)(F)F)c2)C[C@H](CCNC(=O)C(C)(C)O)O3)c1F [Compound 30F, (S)-N-(2-(6-(2,5-difluoro-3-methoxyphenyl)-4-((3-(trifluoromethyl)phenyl)sulfonyl)-3,4-dihydro-2H-benzo[b][1,4]oxazin-2-yl)ethyl)-2-hydroxy-2-methylpropanamide] | **** (The symbol “****” indicates a value greater than 200) |  | * (The symbol “*” indicates a value in the range of 25 to 90)
< 500 nM |  | < 500 nM | CC(C)(O)C(=O)NC[C@H]1CN(S(=O)(=O)c2cccc(C(F)(F)F)c2)c2cc(-c3cccc(C(F)(F)F)n3)ccc2O1 [Compound 30I, (S)-2-hydroxy-2-methyl-N-((4-((3-(trifluoromethyl)phenyl)-sulfonyl)-6-(6-(trifluoromethyl)-pyridin-2-yl)-3,4-dihydro-2H-benzo[b][1,4]oxazin-2-yl)methyl)propanamide] | **** (The symbol “****” indicates a value greater than 200) |  | * (The symbol “*” indicates a value in the range of 25 to 90)
< 500 nM |  | < 500 nM | COc1cc(F)cc(-c2ccc3c(c2)N(S(=O)(=O)c2cccc(C(F)(F)F)c2)C[C@H](CNC(=O)C(C)(C)O)O3)c1F [Compound 30L, (S)-N-((6-(2,5-difluoro-3-methoxyphenyl)-4-((3-(trifluoromethyl)phenyl)sulfonyl)-3,4-dihydro-2H-benzo[b][1,4]oxazin-2-yl)methyl)-2-hydroxy-2-methylpropanamide] | **** (The symbol “****” indicates a value greater than 200) |  | * (The symbol “*” indicates a value in the range of 25 to 90)
< 500 nM |  | < 500 nM | CC(C)(O)C(=O)NCC[C@H]1CN(S(=O)(=O)c2cccc(OC(F)F)c2)c2cc(-c3cc(F)ccc3F)ccc2O1 [Compound 30P, (S)-N-(2-(4-((3-(difluoro-methoxy)phenyl)sulfonyl)-6-(2,5-difluorophenyl)-3,4-dihydro-2H-benzo[b][1,4]oxazin-2-yl)ethyl)-2-hydroxy-2-methylpropanamide] | **** (The symbol “****” indicates a value greater than 200) |  | ** (The symbol “**” indicates a value in the range of greater than 90 to 150)
